# Biological target: T1, Zcchc11 enzyme (Homo sapiens, UniProt Q5TAX3)
# T1 construct: made in house; host or cells: HEK293 cells (Zcchc11); E. coli Rosetta II (LIN28A)
# T1 sequence (Q5TAX3 212-1420): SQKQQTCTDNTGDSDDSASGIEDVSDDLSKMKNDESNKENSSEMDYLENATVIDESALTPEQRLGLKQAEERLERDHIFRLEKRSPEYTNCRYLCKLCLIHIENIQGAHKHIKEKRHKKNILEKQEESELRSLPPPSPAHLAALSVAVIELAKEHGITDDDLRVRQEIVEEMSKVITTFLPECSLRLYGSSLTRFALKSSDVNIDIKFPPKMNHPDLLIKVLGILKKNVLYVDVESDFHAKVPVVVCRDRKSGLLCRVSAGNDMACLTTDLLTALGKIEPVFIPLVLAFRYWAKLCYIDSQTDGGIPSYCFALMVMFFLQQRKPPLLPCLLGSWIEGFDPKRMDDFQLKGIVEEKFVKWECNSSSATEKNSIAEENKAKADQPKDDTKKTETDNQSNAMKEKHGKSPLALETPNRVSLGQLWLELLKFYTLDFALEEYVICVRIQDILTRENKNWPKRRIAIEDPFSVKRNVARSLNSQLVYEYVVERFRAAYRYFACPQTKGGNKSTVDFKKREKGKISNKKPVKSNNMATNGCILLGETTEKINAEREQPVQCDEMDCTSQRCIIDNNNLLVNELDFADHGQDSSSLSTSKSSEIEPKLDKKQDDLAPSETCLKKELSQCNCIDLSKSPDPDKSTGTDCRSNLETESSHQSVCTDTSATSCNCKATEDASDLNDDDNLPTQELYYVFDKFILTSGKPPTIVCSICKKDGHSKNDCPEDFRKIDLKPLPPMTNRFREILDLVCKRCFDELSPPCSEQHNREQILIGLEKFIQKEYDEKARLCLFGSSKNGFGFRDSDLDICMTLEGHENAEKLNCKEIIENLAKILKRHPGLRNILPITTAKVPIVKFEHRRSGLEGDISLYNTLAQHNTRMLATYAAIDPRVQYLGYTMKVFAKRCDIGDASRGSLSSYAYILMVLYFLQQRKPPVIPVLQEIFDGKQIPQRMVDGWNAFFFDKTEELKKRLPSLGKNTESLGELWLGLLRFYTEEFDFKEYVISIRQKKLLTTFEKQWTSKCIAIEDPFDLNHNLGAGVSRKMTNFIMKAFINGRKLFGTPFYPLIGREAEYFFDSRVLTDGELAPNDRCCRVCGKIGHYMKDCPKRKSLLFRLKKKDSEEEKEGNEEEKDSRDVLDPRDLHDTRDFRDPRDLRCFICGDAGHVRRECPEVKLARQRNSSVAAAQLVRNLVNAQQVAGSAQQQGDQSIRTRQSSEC
# Assay: TUTase assay (Zcchc11 assay, Lin28a-dependent polyuridylation of pre-let-7)
# Format: biochemical
# Conditions: Lin28a-dependent Zcchc11 (Z11) TUTase activity; read-out: Potency Lin28a-dep Z11 IC50
# How it was run: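 Polyuridylation measured as fluorescein loss when a rhodamine-labelled A20 probe anneals to U-tails added to fluorescein pre-let-7 (2 nM). Reaction: truncated Zcchc11 0.2 nM, E. coli-made LIN28A 10 nM, UTP 5 uM, HEPES pH 7.3, room temperature. Initial rates fitted to four-parameter IC50.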
row,SMILES,IC50
1,"COc1ccc(Cl)c(OCC23CC(CN2c2cc4c(cc2Cl)c(=O)c(C(=O)O)cn4-c2ccc(N)nc2)C3)n1 [Compound 176, 1-(6-aminopyridin-3-yl)-6-chloro-7-(1-[[(3-chloro-6-methoxy-pyridin-2-yl)oxy]methyl]-2-azabicyclo [2.1.1]hexan-2-yl)-4-oxoquinoline-3-carboxylic acid]",1 to 10 µM
2,"COc1ccc(Cl)c(OCC23CC(CN2c2cc4c(cc2Cl)c(=O)c(C(=O)O)cn4-c2ccnc(N)c2)C3)n1 [Compound 177, 1-(2-aminopyridin-4-yl)-6-chloro-7-(1-[[(3-chloro-6-methoxy-pyridin-2-yl)oxy]methyl]-2-azabicyclo [2.1.1]hexan-2-yl)-4-oxoquinoline-3-carboxylic acid]",1 to 10 µM
3,"CN(C)C1CN(c2ccc(-n3cc(C(=O)O)c(=O)c4cc(C#N)c(N5C6CCC5(COc5ncccc5F)CC6)cc43)cn2)C1 [Compound 181, 6-cyano-1-(6-(3-(dimethyl-amino)azetidin-1-yl)pyridin-3-yl)-7-(1-(((3-fluoropyridin-2-yl)oxy)methyl)-7-azabicyclo [2.2.1]heptan-7-yl)-4-oxo-1,4-dihydro-quinoline-3-carboxylic acid]",≤ 1 µM
4,"CN(C)C1CN(c2ccc(-n3cc(C(=O)O)c(=O)c4cc(Cl)c(N5CCC5COc5ncccc5Cl)cc43)cn2)C1 (stereo not drawn) [Compound 184, 6-chloro-7-(2-(((3-chloropyridin-2-yl)oxy)methyl)azetidin-1-yl)-1-(6-(3-(dimethyl-amino)azetidin-1-yl)pyridin-3-yl)-4-oxo-1,4-dihydro-quinoline-3-carboxylic acid formic acid]",≤ 1 µM
5,CN(C)C1CN(c2ccc(-n3cc(C(=O)O)c(=O)c4cc(Cl)c(N5CCC[C@]5(C)COc5ncccc5Cl)nc43)cn2)C1 [Compound 185],≤ 1 µM
6,"COc1ccnc(OC[C@H]2C[C@H]3C[C@H]3N2c2cc3c(cc2Cl)c(=O)c(C(=O)O)cn3-c2ccc(N(C)C)nc2)c1F [Compound 196, 6-chloro-1-(6-(dimethyl-amino)pyridin-3-yl)-7-((1R,3R,5R)-3-(((3-fluoro-4-methoxy-pyridin-2-yl)oxy)methyl)-2-azabicyclo [3.1.0]hexan-2-yl)-4-oxo-1,4-dihydro-quinoline-3-carboxylic acid]",≤ 1 µM
7,"COc1ccnc(OC[C@H]2C[C@H]3C[C@H]3N2c2cc3c(cc2F)c(=O)c(C(=O)O)cn3-c2ccc(N(C)C)nc2)c1F [Compound 197, 1-(6-(dimethyl-amino)pyridin-3-yl)-6-fluoro-7-((1R,3R,5R)-3-(((3-fluoro-4-methoxy-pyridin-2-yl)oxy)methyl)-2-azabicyclo [3.1.0]hexan-2-yl)-4-oxo-1,4-dihydro-quinoline-3-carboxylic acid]",≤ 1 µM
8,"COc1ccc(Cl)c(OC[C@H]2C[C@H]3C[C@H]3N2c2cc3c(cc2Cl)c(=O)c(C(=O)O)cn3-c2ccnc(N)c2)n1 [Compound 198, 1-(2-aminopyridin-4-yl)-6-chloro-7-((1R,3R,5R)-3-(((3-chloro-6-methoxy-pyridin-2-yl)oxy)methyl)-2-azabicyclo [3.1.0]hexan-2-yl)-4-oxo-1,4-dihydro-quinoline-3-carboxylic acid]",≤ 1 µM
9,"COc1ccc(Cl)c(OC[C@H]2C[C@H]3C[C@H]3N2c2cc3c(cc2F)c(=O)c(C(=O)O)cn3-c2ccnc(N)c2)n1 [Compound 199, 1-(2-aminopyridin-4-yl)-7-((1R,3R,5R)-3-(((3-chloro-6-methoxy-pyridin-2-yl)oxy)methyl)-2-azabicyclo [3.1.0]hexan-2-yl)-6-fluoro-4-oxo-1,4-dihydro-quinoline-3-carboxylic acid]",≤ 1 µM
10,"CO/N=C1\C[C@H](COc2nc(OC)ccc2Cl)N(c2cc3c(cc2Cl)c(=O)c(C(=O)O)cn3-c2ccc(N3CC(N(C)C)C3)nc2)C1 [Compound 200, (R,E)-6-chloro-7-(2-(((3-chloro-6-methoxy-pyridin-2-yl)oxy)methyl)-4-(methoxyimino)pyrrolidin-1-yl)-1-(6-(3-(dimethyl-amino)azetidin-1-yl)pyridin-3-yl)-4-oxo-1,4-dihydro-quinoline-3-carboxylic acid]",≤ 1 µM
11,"COc1ccc(Cl)c(OC[C@H]2C[C@@H]3C[C@@H]3N2c2cc3c(cc2F)c(=O)c(C(=O)O)cn3-c2ccc(N3CC(N(C)C)C3)nc2)n1 [Compound 201, 7-((1S,3R,5S)-3-(((3-chloro-6-methoxy-pyridin-2-yl)oxy)methyl)-2-azabicyclo [3.1.0]hexan-2-yl)-1-(6-(3-(dimethyl-amino)azetidin-1-yl)pyridin-3-yl)-6-fluoro-4-oxo-1,4-dihydro-quinoline-3-carboxylic acid]",≤ 1 µM
12,"COc1ccc(Cl)c(OCC2C3CC(C3)N2c2cc3c(cc2Cl)c(=O)c(C(=O)O)cn3-c2ccc(N3CC(N(C)C)C3)nc2)n1 (stereo not drawn) [Compound 202, 6-chloro-7-(3-(((3-chloro-6-methoxy-pyridin-2-yl)oxy)methyl)-2-azabicyclo [2.1.1]hexan-2-yl)-1-(6-(3-(dimethyl-amino)azetidin-1-yl)pyridin-3-yl)-4-oxo-1,4-dihydro-quinoline-3-carboxylic acid]",≤ 1 µM
13,"CN(C)C1CN(c2ccc(-n3cc(C(=O)O)c(=O)c4cc(Cl)c(N5CCC[C@@H]5COc5nc6nc[nH]c6cc5Cl)cc43)cn2)C1 [Compound 204, (R)-6-chloro-7-(2-(((6-chloro-1H-imidazo [4,5-b]pyridin-5-yl)oxy)methyl)pyrrolidin-1-yl)-1-(6-(3-(dimethyl-amino)azetidin-1-yl)pyridin-3-yl)-4-oxo-1,4-dihydro-quinoline-3-carboxylic acid]",≤ 1 µM
14,"COc1ccc(Cl)c(OC[C@H]2CCCN2c2cc3c(cc2C)c(=O)c(C(=O)O)cn3-c2ccc(N3CC(N(C)C)C3)nc2)n1 [Compound 206, (R)-7-(2-(((3-chloro-6-methoxy-pyridin-2-yl)oxy)methyl)pyrrolidin-1-yl)-1-(6-(3-(dimethyl-amino)azetidin-1-yl)pyridin-3-yl)-6-methyl-4-oxo-1,4-dihydro-quinoline-3-carboxylic acid]",≤ 1 µM
15,CN(C)CCn1cc(-n2cc(C(=O)O)c(=O)c3cc(C#N)c(N4CCC[C@@H]4COc4ncccc4Cl)cc32)cn1 [Compound 207],≤ 1 µM
16,"Cc1cccnc1OC[C@H]1CCCN1c1cc2c(cc1F)c(=O)c(C(=O)O)cn2-c1ccc(N)nc1 [Compound 208, (R)-1-(6-aminopyridin-3-yl)-6-fluoro-7-(2-(((3-methylpyridin-2-yl)oxy)methyl)pyrrolidin-1-yl)-4-oxo-1,4-dihydro-quinoline-3-carboxylic acid]",≤ 1 µM
17,"Nc1cc(-n2cc(C(=O)O)c(=O)c3cc(Cl)c(N4CCC[C@@H]4COc4ncccc4Cl)cc32)ccn1 [Compound 209, (R)-1-(2-aminopyridin-4-yl)-6-chloro-7-(2-(((3-chloropyridin-2-yl)oxy)methyl)pyrrolidin-1-yl)-4-oxo-1,4-dihydro-quinoline-3-carboxylic acid]",≤ 1 µM
18,"Cc1cccnc1OC[C@H]1CCCN1c1cc2c(cc1Cl)c(=O)c(C(=O)O)cn2-c1ccc(N)nc1 [Compound 210, (R)-1-(6-aminopyridin-3-yl)-6-chloro-7-(2-(((3-methylpyridin-2-yl)oxy)methyl)pyrrolidin-1-yl)-4-oxo-1,4-dihydro-quinoline-3-carboxylic acid]",≤ 1 µM
19,"O=C(O)c1cn(-c2cnccn2)c2cc(N3CCCCC3COc3ccccn3)c(Cl)cc2c1=O (stereo not drawn) [Compound 211, 6-Chloro-4-oxo-1-(pyrazin-2-yl)-7-{2-[(pyridin-2-yloxy)methyl]piperidin-1-yl}quinoline-3-carboxylic acid]",1 to 10 µM
20,"Cc1cccnc1OC[C@H]1CCCN1c1cc2c(cc1Cl)c(=O)c(C(=O)O)cn2-c1cnccn1 [Compound 212, 6-Chloro-7-[(2R)-2-{[(3-methylpyridin-2-yl)oxy]methyl}pyrrolidin-1-yl]-4-oxo-1-(pyrazin-2-yl)quinoline-3-carboxylic acid]",≤ 1 µM
21,"O=C(O)c1cn(-c2cnccn2)c2cc(N3CCC[C@@H]3COc3ncccc3F)c(Cl)cc2c1=O [Compound 213, 6-Chloro-7-[(2R)-2-{[(3-fluoropyridin-2-yl)oxy]methyl}pyrrolidin-1-yl]-4-oxo-1-(pyrazin-2-yl)quinoline-3-carboxylic acid]",≤ 1 µM
